Data reported in patent publication US10662151B1, “Process for preparing DTEA HCl” (AMSA, Inc., priority 2017, dated 2020).

Experiment: Water solubility of DTEA HCl (pure and crude) at different temperatures
Format: physicochemical
Conditions: FIG. 2
From the text: FIG. 2 graphically represents the water solubility of pure DTEA HCl.

With CCCCCCCCCCSCCN.Cl [DTEA HCl, n-decylthioethylamine HCl] the solids formation (15 wt % solution in water) was “forms solids well above RT”, the solubility in water (at 32° F.) was “essentially insoluble” and the solubility in water (at 56° F., no LTS) was “less than 1 wt %”. It also gave a solubility in water (at 67° F., no LTS) of 11 wt %.
